{
  "source": "patent US12329745B2",
  "about": "“Methods and compositions for treating glucocorticoid excess” (Sparrow Pharmaceuticals, Inc., priority 2022, dated 2025)",
  "key": {"[1]": {"biological_target": "T1, adipose HSD-1 (Homo sapiens, UniProt P28845)", "T1 construct": "infused continuously into subcutaneous abdominal adipose tissue via microdialysis catheters; from tissue; host or cells: human subcutaneous abdominal adipose tissue, in vivo", "T1 sequence (P28845 whole entry, the tested form may be a part)": "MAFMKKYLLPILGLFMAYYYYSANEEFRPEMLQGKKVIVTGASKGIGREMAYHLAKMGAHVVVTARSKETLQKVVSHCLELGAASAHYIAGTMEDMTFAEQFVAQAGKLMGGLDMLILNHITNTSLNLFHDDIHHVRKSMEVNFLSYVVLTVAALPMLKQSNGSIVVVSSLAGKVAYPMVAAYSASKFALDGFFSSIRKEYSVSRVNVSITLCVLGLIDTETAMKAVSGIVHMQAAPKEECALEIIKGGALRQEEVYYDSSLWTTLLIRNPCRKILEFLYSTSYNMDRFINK", "test": "Adipose HSD-1 inhibition by microdialysis (D8 cortisone to D8 cortisol) in subjects with type 2 diabetes given SPI-62", "assay_type": "in vivo", "procedure": "Male and non-menstruating female subjects with type 2 diabetes aged between 18 and 65 years with a body mass index between 30.0 and 45.0 were administered SPI-62 daily for 14 days. […] Percent adipose HSD-1 inhibition was calculated as: 100*(1-(MPFt/MPFbaseline).\nThe time (t) of the sample was considered to be the midpoint of the collection interval. […] Data shown are the median inhibition observed in two subjects for whom the SPI-62 daily dose was 6 mg.\nMale and non-menstruating female subjects with type 2 diabetes aged between 18 and 65 years with a body mass index between 30.0 and 45.0 were administered SPI-62 daily for 14 days. In addition to the six subjects described in Example 1 who received SPI-62 1, 3, or 6 mg for 14 days, six additional subjects received SPI-62 1, 2, 3, or 10 mg for 5 to 8 days. […] Percent adipose HSD-1 inhibition was calculated as: 100*(1-(MPFt/MPFbaseline). The time (t) of the sample was considered to be the midpoint of the collection interval. A higher sensitivity assay for D8 cortisol was used to enable quantitation of adipose HSD-1 inhibition of >95%."}, "[2]": {"tested_on": "urine tetrahydrocortisone", "test": "Urine tetrahydrocortisone (excreted cortisone metabolite; liver cortisone levels)", "assay_type": "in vivo, human", "conditions": "healthy adults", "procedure": "In healthy adults administered a single dose of 10, 20, or 50 mg SPI-62 (n=40), the least squares mean (standard error) tetrahydrocortisone was 32.71 (1.149) […] compared to 9.19 (2.300) mol after a single dose of matching placebo (n=10). In the same subjects after 14 daily doses, tetrahydrocortisone was 42.73 (1.968) mol for SPI-62 and 8.51 (0.410) mol for placebo. Similar results were also observed in elderly adults."}, "[3]": {"test": "Phase 2 trial 3662-CL-0049 in painful diabetic peripheral neuropathy: TC, glucose, HbA1c, TG", "assay_type": "in vivo, human", "procedure": "Analyses of covariance were conducted to analyze total cholesterol (TC), glucose, glycated hemoglobin (HbA1c), and triglycerides (TG), with baseline value as the covariate and a baseline*treatment interaction term, in patients with painful diabetic peripheral neuropathy following daily administration of SPI-62 or placebo. Data were obtained from study 3662-CL-0049, a Phase 2 randomized, double-blind, placebo- and active-controlled clinical trial of the safety and efficacy of SPI-62 in subjects with painful diabetic peripheral neuropathy."}, "[4]": {"biological_target": "T2, HSD-1 (Homo sapiens, UniProt P28845)", "T2 sequence (P28845 whole entry)": "as the sequence (P28845 whole entry, the tested form may be a part) above", "test": "Surface plasmon resonance binding kinetics in presence of NADPH (residence time)", "conditions": "300 μM NADPH; reciprocal of the dissociation rate constant; read-out: Residence Time (converted)", "from_the_text": "Pseudo-irreversible HSD-1 inhibitors can be identified via in vitro enzyme kinetics evaluation, in which they are expected to show longer enzyme residence times compared to other HSD-1 inhibitors. Surface plasmon resonance (SPR) is the resonant oscillation of conduction electrons at the interface between negative and positive permittivity material stimulated by incident light. When a protein is bound to a surface, SPR can be used to detect ligand binding to the protein. […] Association and dissociation of test compounds were monitored in the presence of 300 µM NADPH throughout the experiment."}, "[5]": {"biological_target": "T3, human HSD-1 expressed in CHO cells (Homo sapiens, UniProt P28845)", "T3 construct": "expressed in transfected cells; host or cells: CHO cells", "T3 sequence (P28845 whole entry)": "as the sequence (P28845 whole entry, the tested form may be a part) above", "test": "Inhibition of human HSD-1 expressed in CHO cells", "assay_type": "cell-based"}, "[6]": {"biological_target": "T2, HSD-1", "conditions": "both, in vivo"}, "[7]": {"test": "Human plasma pharmacokinetics of SPI-62", "assay_type": "in vivo", "conditions": "for Cmax: human, plasma, oral", "procedure": "The single- and multiple-dose pharmacokinetics of SPI-62 were well-characterized by a two-compartment TMDD population pharmacokinetics model with 3 transit absorption compartments and an estimated target capacity of ˜2.5 mg of SPI-62 which comports well with the dose range in which pharmacokinetic nonlinearity is prominent."}, "[8]": {"biological_target": "liver HSD-1 (Homo sapiens, UniProt P28845)", "sequence (P28845 whole entry)": "as the sequence (P28845 whole entry, the tested form may be a part) above", "test": "Urinary HSD-1 ratio (tetrahydrocortisol+allotetrahydrocortisol)/tetrahydrocortisone", "assay_type": "in vivo", "parameters": "from tissue; host or cells: human liver in vivo, read through urinary steroid metabolites", "conditions": "for mean urinary HSD-1 ratio, reduction from baseline: 0.7 mg daily", "from_the_text": "The tetrahydro metabolites are rapidly and extensively excreted in urine. […] Continued adrenal synthesis provides a circulating pool of cortisol, the free fraction of which (˜5%) enters cells. That prevents the urinary HSD-1 ratio from dropping below approximately 0.1."}, "[9]": {"test": "Clinical effective daily dose and side effects of HSD-1 inhibitors", "conditions": "human, in vivo", "procedure": "Pseudo-irreversible HSD-1 inhibitors might have additional advantages over other HSD-1 inhibitors. For example, with durable pharmacologic effect, pseudo-irreversible HSD-1 inhibitors are more amenable to less than daily dosing including depot formulations and less likely to show decreased efficacy based on imperfect patient compliance. Additionally, HSD-1 in the human body appears to become completely occupied with approximately 3 mg of a potent small molecule inhibitor. Because pseudo-irreversible inhibitors, once bound, distribute only slowly off HSD-1 a low chronic dose is possible. Several pseudo-irreversible HSD-1 inhibitors, such as SPI-62, ABT-384, MK-0736, and MK-0916, have effective dose ranges below 10 mg daily."}, "[10]": {"biological_target": "purified human HSD-1 (Homo sapiens, UniProt P28845)", "sequence (P28845 whole entry)": "as the sequence (P28845 whole entry, the tested form may be a part) above", "test": "In vitro inhibition of purified human HSD-1", "assay_type": "biochemical"}, "[11]": {"tested_on": "serum cortisone", "test": "Serum cortisone and cortisol in patients with painful diabetic peripheral neuropathy", "assay_type": "in vivo, human", "conditions": "10 mg for 6 weeks"}},
  "note": "Read-outs that look alike come from different tables or passages of the source.",
  "data": [
    {"smiles": "Cn1c(-c2ccc(C(N)=O)cc2F)nnc1C(C)(C)Oc1c(F)cc(Cl)cc1F", "note": "[SPI-62, 4-(5-(2-(4-chloro-2,6-difluorophenoxy)propan-2-yl)-4-methyl-4H-1,2,4-triazol-3-yl)-3-fluorobenzamide]", "values": [
      {"measurement": "adipose HSD-1 inhibition, 2nd v 14th dose intervals", "setting": "[1]; SPI-62 6 mg daily", "value": "almost identical"},
      {"measurement": "time after a single dose at which adipose HSD-1 inhibition was detected", "setting": "[1]; SPI-62 6 mg daily, median of two subjects, FIG. 1", "value": "2 to 4", "unit": "h"},
      {"measurement": "adipose HSD-1 inhibition during the 2nd dose interval", "setting": "[1]; SPI-62 6 mg daily, quantitation limited to ~90-95%", "value": "maximal measurable levels"},
      {"measurement": "adipose HSD-1 inhibition after multiple doses", "setting": "[1]; SPI-62 1, 2, 3, or 10 mg", "value": "maximum measurable"},
      {"measurement": "tachyphylaxis of human adipose HSD-1 inhibition with multiple dosing", "setting": "[1]; human, in vivo", "value": "does not show"},
      {"measurement": "adipose HSD-1 inhibition after lower single doses", "setting": "[1]; lower single SPI-62 doses", "value": "no or limited"},
      {"measurement": "urine tetrahydrocortisone, least squares mean (standard error)", "setting": "[2]; after 14 daily doses", "value": "42.73 (1.968) mol"},
      {"measurement": "urine tetrahydrocortisone, least squares mean (standard error)", "setting": "[2]; single dose of 10, 20, or 50 mg (n=40)", "value": "32.71 (1.149) mol"},
      {"measurement": "Glucose, least squares mean (standard error)", "setting": "[3]; Week 6/EOT", "value": "7.61 (0.556) mmol/L"},
      {"measurement": "HbA1c, least squares mean (standard error)", "setting": "[3]; Week 6/EOT", "value": 7.1, "unit": "%"},
      {"measurement": "TG, least squares mean (standard error)", "setting": "[3]; Week 6/EOT", "value": "1.68 (0.202) mmol/L"},
      {"measurement": "TC, least squares mean (standard error)", "setting": "[3]; Week 6/EOT, N = 36", "value": "3.95 (0.120) mmol/L"},
      {"measurement": "Glucose, least squares mean (standard error)", "setting": "[3]; Week 8/EOS", "value": "7.78 (0.546) mmol/L"},
      {"measurement": "HbA1c, least squares mean (standard error)", "setting": "[3]; Week 8/EOS", "value": 7.02, "unit": "%"},
      {"measurement": "TC, least squares mean (standard error)", "setting": "[3]; Week 8/EOS", "value": "4.16 (0.105) mmol/L"},
      {"measurement": "TG, least squares mean (standard error)", "setting": "[3]; Week 8/EOS", "value": "1.63 (0.113) mmol/L"},
      {"measurement": "residence time", "setting": "[4]", "value": 8.92, "unit": "min"},
      {"measurement": "Ki", "setting": "[5]", "value": 12.6, "unit": "nM"},
      {"measurement": "total target amount in the central compartment (RTOT)", "setting": "[6]", "value": 7.84, "unit": "µM"},
      {"measurement": "unbound concentration corresponding to Cmax", "setting": "[7]; 0.2 mg daily for 14 days", "value": "< 0.25", "unit": "nM"},
      {"measurement": "plasma levels after 14 days of dosing, dose proportionality", "setting": "[7]; doses of 0.2 to 50 mg", "value": "approximately dose-proportional"},
      {"measurement": "Cmax", "setting": "[7]; 0.2 mg, 0.2 mg daily for 14 days, last dosing day, read-out: mean maximum plasma drug concentration (Cmax)", "value": "< 1", "unit": "ng/mL"},
      {"measurement": "Cmax", "setting": "[7]; 1 mg, single dose 1 mg, read-out: mean Cmax", "value": "< 0.05", "unit": "ng/mL"},
      {"measurement": "Cmax", "setting": "[7]; multiple doses 0.2 to 50 mg, read-out: Cmax means", "value": "1 to 835", "unit": "ng/mL"},
      {"measurement": "Cmax", "setting": "[7]; single doses of 6 to 60 mg, read-out: Cmax means", "value": "28 to 595", "unit": "ng/mL"},
      {"measurement": "plasma drug levels (all below the LLOQ)", "setting": "[7]; single 1 mg dose", "value": "< 0.1", "unit": "ng/mL"},
      {"measurement": "unbound concentration corresponding to Cmax", "setting": "[7]; single dose 1 mg", "value": "< 0.012", "unit": "nM"},
      {"measurement": "plasma exposures after single doses, dose proportionality", "setting": "[7]; single doses, 0.7 to 3 mg much lower dose-normalized levels", "value": "substantial non-linearity"},
      {"measurement": "estimated target capacity", "setting": "[7]; two-compartment TMDD population pharmacokinetics model", "value": "~2.5", "unit": "mg"},
      {"measurement": "mean reduction of the urinary HSD-1 ratio from baseline", "setting": "[8]; 0.2 mg daily for 14 days, last dosing day", "value": 87, "unit": "%"},
      {"measurement": "time after the last dose with incomplete return of urinary HSD-1 ratio to baseline", "setting": "[8]; healthy adults", "value": "more than 2 weeks"},
      {"measurement": "mean urinary HSD-1 ratio, reduction from baseline", "setting": "[8]; healthy adults, 16±2 days after cessation", "value": 55, "unit": "%"},
      {"measurement": "mean urinary HSD-1 ratio, reduction from baseline", "setting": "[8]; healthy adults, last dosing day", "value": 84, "unit": "%"},
      {"measurement": "mean urinary HSD-1 ratio", "setting": "[8]; patients, 10 mg daily for 6 weeks, 2 weeks after the last dose", "value": 0.33},
      {"measurement": "mean urinary HSD-1 ratio", "setting": "[8]; patients, 10 mg daily for 6 weeks, last dosing day", "value": 0.13},
      {"measurement": "mean urinary HSD-1 ratio", "setting": "[8]; single 1 mg dose, urine 0 to 6 hours post-dose", "value": 0.694},
      {"measurement": "mean urinary HSD-1 ratio", "setting": "[8]; single 1 mg dose, urine 6 to 12 hours post-dose", "value": 0.471},
      {"measurement": "mean urinary HSD-1 ratio", "setting": "[8]; single 1 mg dose, urine 12 to 24 hours post-dose", "value": 0.472},
      {"measurement": "mean urinary HSD-1 ratio", "setting": "[8]; single 1 mg dose, urine 24 to 48 hours post-dose", "value": 0.522},
      {"measurement": "mean urinary HSD-1 ratio", "setting": "[8]; single 1 mg dose, urine 48 to 72 hours post-dose", "value": 0.618},
      {"measurement": "mean difference v placebo of the urinary HSD-1 ratio", "setting": "[8]; single dose 1 mg", "value": 51, "unit": "%"},
      {"measurement": "effective dose range", "setting": "[9]", "value": "below 10 mg daily"},
      {"measurement": "IC50", "setting": "[10]", "value": 17, "unit": "nM"},
      {"measurement": "Ki", "setting": "[10]", "value": 5.3, "unit": "nM"},
      {"measurement": "serum cortisol", "setting": "[11]", "value": "did not change"},
      {"measurement": "serum cortisone", "setting": "[11]; last day of study drug administration (n=36)", "value": "56.0 (2.37) nM"},
      {"measurement": "serum cortisone", "setting": "[11]; two weeks later", "value": "49.5 (1.75) nM"}
    ]}
  ]
}
